Results as given in the supplement of paper PMC10307832.

What was measured:
Experiment in all cases: relative viability (nuclei count vs DMSO), 5 days (fraction); higher = more cells survive
[1] = compound: CN(C)C[C@@H]1CCn2cc(c3ccccc32)C2=C(C(=O)NC2=O)c2cn(c3ccccc23)CCO1 [Ruboxistaurin] + CS(=O)(=O)N1CCN(Cc2cc3nc(-c4cccc5[nH]ncc45)nc(N4CCOCC4)c3s2)CC1 [Pictilisib] (partner 1 µM)
Method in brief: (§1)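 Relative viability divides the nuclei count in treated wells by that in vehicle wells. Lung cancer cell lines were seeded in 1536-well plates, dosed by pin tool the next day, and fixed and stained after 5 days in one step with final 0.05% Triton X-100, 1% formaldehyde and 1 ug/ml Hoechst. Dosing was a single drug or a fixed anchor-drug dose plus five library-drug doses (not always all listed) in √10 steps, and values are medians of duplicate plates imaged at 4×.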

[2] = compound: CN(C)C[C@@H]1CCn2cc(c3ccccc32)C2=C(C(=O)NC2=O)c2cn(c3ccccc23)CCO1 [Ruboxistaurin] + CC1(C)CCC(c2ccc(Cl)cc2)=C(CN2CCN(c3ccc(C(=O)NS(=O)(=O)c4ccc(N[C@H](CCN5CCOCC5)CSc5ccccc5)c(S(=O)(=O)C(F)(F)F)c4)cc3)CC2)C1 [Navitoclax] (partner 0.5 µM)
Method in brief: as §1

[3] = compound: CN(C)C[C@@H]1CCn2cc(c3ccccc32)C2=C(C(=O)NC2=O)c2cn(c3ccccc23)CCO1 [Ruboxistaurin] + CC(C)C[C@H](NC(=O)[C@H](Cc1ccccc1)NC(=O)c1cnccn1)B(O)O [Bortezomib] (partner 0.002 µM)
Method in brief: as §1

Ruboxistaurin + OSI-027 = compound: CN(C)C[C@@H]1CCn2cc(c3ccccc32)C2=C(C(=O)NC2=O)c2cn(c3ccccc23)CCO1 [Ruboxistaurin] + COc1cccc2cc(-c3nc([C@H]4CC[C@H](C(=O)O)CC4)n4ncnc(N)c34)[nH]c12 [OSI-027] (partner 0.5 µM)
Method in brief: as §1

[4] = compound: CN(C)C[C@@H]1CCn2cc(c3ccccc32)C2=C(C(=O)NC2=O)c2cn(c3ccccc23)CCO1 [Ruboxistaurin] + CS(=O)(=O)CCNCc1ccc(-c2ccc3ncnc(Nc4ccc(OCc5cccc(F)c5)c(Cl)c4)c3c2)o1 [Lapatinib] (partner 2 µM)
Method in brief: as §1

Cell Line	relative viability ([1]; first compound 0.08 µM)	relative viability ([1]; first compound 0.8 µM)	relative viability ([1]; first compound 2.53 µM)	relative viability ([1]; first compound 8 µM)	relative viability ([2]; first compound 0.08 µM)	relative viability ([2]; first compound 0.8 µM)	relative viability ([2]; first compound 2.53 µM)	relative viability ([2]; first compound 8 µM)	relative viability ([3]; first compound 0.08 µM)	relative viability ([3]; first compound 0.8 µM)	relative viability ([3]; first compound 2.53 µM)	relative viability ([3]; first compound 8 µM)	relative viability (Ruboxistaurin + OSI-027; first compound 0.08 µM)	relative viability (Ruboxistaurin + OSI-027; first compound 0.8 µM)	relative viability (Ruboxistaurin + OSI-027; first compound 2.53 µM)	relative viability (Ruboxistaurin + OSI-027; first compound 8 µM)	relative viability ([4]; first compound 0.08 µM)	relative viability ([4]; first compound 0.8 µM)	relative viability ([4]; first compound 2.53 µM)	relative viability ([4]; first compound 8 µM)
NCI-H647	0.53	0.37	0.417	0.258	1.23	1	1.17	1.2	1.21	0.817	0.869	1.3	0.754	0.532	0.432	0.42	1.06	0.97	1.08	0.815
NCI-H2009	0.819	0.796	0.825	0.552	1.21	1.16	1.18	1.17	1.04	0.941	1.14	1.41	0.735	0.536	0.608	0.548	1.02	0.956	0.931	1.13
EPLC-272H	0.341	0.303	0.343	0.294	1.28	0.96	1.41	1.18	1.04	0.691	1.01	1.01	0.308	0.266	0.298	0.249	0.966	0.916	0.933	0.962
NCI-H520	0.324	0.264	0.236	0.208	1.24	0.984	1.19	0.955	0.856	0.66	0.806	0.423	0.192	0.258	0.233	0.218	0.904	0.772	0.867	0.864
NCI-H2405	0.561	0.411	0.478	0.33	1.09	0.654	0.917	0.963	1.01	1.01	1	0.94	0.652	0.592	0.633	0.56	1.3	1.01	1.19	1.05
NCI-H2085	0.447	0.419	0.409	0.324	1.27	1.1	1.27	1.26	1.07	0.987	1.09	1.17	0.731	0.521	0.791	0.446	0.902	0.76	0.754	0.721
NCI-H322M	0.553	0.484	0.432	0.385	1.2	1.09	1.24	1.19	1.2	1.16	1.16	1.28	0.646	0.514	0.514	0.377	0.589	0.54	0.543	0.543
NCI-H1944	0.332	0.279	0.354	0.31	1.08	1	1.04	1.09	–	–	–	–	0.411	0.334	0.404	0.271	0.874	0.71	0.731	0.819
LC-2-ad	0.481	0.347	0.495	0.286	0.474	0.395	0.557	0.345	1.17	0.929	1.15	1.06	0.935	0.842	0.86	0.781	1.1	0.889	1.02	1.02
NCI-H358	0.326	0.297	0.3	0.235	–	–	–	–	–	–	–	–	0.95	0.642	0.787	0.471	0.479	0.408	0.421	0.406
NCI-H2170	0.301	0.256	0.322	0.253	0.57	0.592	0.581	0.56	–	–	–	–	0.736	0.599	0.67	0.536	0.243	0.241	0.263	0.251
A-427	0.7	0.594	0.738	0.557	0.947	0.816	0.831	0.752	1.01	0.952	0.97	0.731	0.506	0.406	0.458	0.343	0.995	0.988	0.917	0.983
NCI-H1666	0.413	0.355	0.474	0.421	1.12	0.679	1.1	0.931	0.857	0.751	0.806	0.733	0.885	0.785	0.929	0.759	0.596	0.529	0.783	0.659
LOU-NH91	0.554	0.494	0.526	0.502	0.846	0.58	0.738	0.692	0.475	0.473	0.443	0.457	0.748	0.629	0.663	0.676	0.785	0.72	0.851	0.698
ABC-1	0.865	0.774	0.787	0.506	–	–	–	–	0.357	0.339	0.308	0.261	0.692	0.386	0.481	0.331	1.48	1.01	1.06	1.47
NCI-H1651	0.63	0.531	0.502	0.624	1.08	0.827	1.05	1.11	0.975	0.877	0.942	0.958	0.779	0.611	0.653	0.566	0.828	0.697	0.843	0.717
201T	0.729	0.629	0.742	0.555	1.21	1.18	1.24	1.25	1.12	1.08	1.12	1.15	0.694	0.723	0.675	0.59	1.06	1	1.06	1.05

Cell Line	relative viability ([1]; first compound 0.08 µM)	relative viability ([1]; first compound 0.8 µM)	relative viability ([1]; first compound 2.53 µM)	relative viability ([1]; first compound 8 µM)	relative viability ([2]; first compound 0.08 µM)	relative viability ([2]; first compound 0.8 µM)	relative viability ([2]; first compound 2.53 µM)	relative viability ([2]; first compound 8 µM)	relative viability ([3]; first compound 0.08 µM)	relative viability ([3]; first compound 0.8 µM)	relative viability ([3]; first compound 2.53 µM)	relative viability ([3]; first compound 8 µM)	relative viability (Ruboxistaurin + OSI-027; first compound 0.08 µM)	relative viability (Ruboxistaurin + OSI-027; first compound 0.8 µM)	relative viability (Ruboxistaurin + OSI-027; first compound 2.53 µM)	relative viability (Ruboxistaurin + OSI-027; first compound 8 µM)	relative viability ([4]; first compound 0.08 µM)	relative viability ([4]; first compound 0.8 µM)	relative viability ([4]; first compound 2.53 µM)	relative viability ([4]; first compound 8 µM)
NCI-H3122	0.7	0.398	0.564	0.436	1.02	0.919	1	1.09	1.07	0.953	1.01	1.1	0.921	0.811	0.886	0.582	1.02	1.02	1	1.08
A549	0.567	0.423	0.385	0.223	1.23	1.18	1.16	0.99	–	–	–	–	–	–	–	–	1.03	0.838	0.866	0.753
NCI-H727	0.563	0.244	0.433	0.284	0.46	0.394	0.458	0.338	0.974	0.85	0.986	0.69	0.764	0.416	0.523	0.448	1.09	0.552	0.804	0.602
NCI-H441	0.475	0.392	0.566	0.356	0.682	0.464	0.928	0.66	0.636	0.296	0.431	0.448	0.65	0.474	0.607	0.456	–	–	–	–
HOP-62	0.732	0.755	0.535	0.546	1.15	1	1.12	1.35	0.736	0.536	0.734	0.642	0.884	0.783	0.826	0.753	0.995	0.978	0.997	1
RERF-LC-KJ	0.508	0.499	0.472	0.359	1.36	0.977	0.881	0.833	1.09	0.992	1.1	0.937	0.627	0.497	0.461	0.415	0.905	0.837	0.781	0.77
LCLC-103H	0.632	0.611	0.511	0.533	–	–	–	–	1.19	1.12	0.968	1.01	0.46	0.384	0.407	0.357	–	–	–	–
ChaGo-K-1	1.23	0.758	0.655	0.424	1.38	1.08	0.925	0.703	1.27	1.06	1.05	0.939	0.658	0.572	0.618	0.449	–	–	–	–
NCI-H1703	0.198	–	0.277	0.23	1.14	0.992	0.991	0.525	0.401	0.319	0.382	0.237	–	–	–	–	1.08	1.06	1.09	0.678
LK-2	0.595	0.52	0.652	0.303	0.893	0.792	0.875	0.674	–	–	–	–	0.224	0.222	0.158	0.158	1.07	0.866	0.938	0.739
NCI-H650	1.15	0.831	0.848	0.808	–	–	–	–	0.816	0.698	0.927	0.915	0.662	0.49	0.584	0.523	1.22	0.764	1.38	0.491
NCI-H661	0.463	0.499	0.493	0.422	–	–	–	–	0.887	0.664	0.883	0.88	0.78	0.599	0.695	0.6	0.593	0.451	0.639	0.623
NCI-H1793	0.454	0.288	0.478	0.316	0.503	0.382	0.468	0.604	–	–	–	–	0.262	0.239	0.273	0.265	0.845	0.641	0.909	0.841
NCI-H1395	0.635	0.611	0.713	0.518	1.12	1.03	1.2	1.06	–	–	–	–	0.653	0.647	0.662	0.597	1.01	1.06	1.2	0.879
SK-MES-1	0.417	0.3	0.323	0.316	1.35	1.15	1.4	1.09	–	–	–	–	0.676	0.554	0.525	0.327	0.515	0.413	0.5	0.425
NCI-H1563	0.626	0.662	0.601	0.618	–	–	–	–	0.871	0.763	0.933	0.775	0.796	0.748	0.694	0.66	1.06	0.945	1.04	0.952
IA-LM	0.389	0.271	0.381	0.323	0.852	0.722	0.862	0.987	0.891	0.669	1.1	0.98	–	–	–	–	0.751	–	1.07	0.789
